Consider 34 compounds from EP1247803A2, “Indolinone compounds suitable for modulation of protein kinases” (Sugen, Inc., priority 1996, dated 1998).

One experiment deals with T1, FLK-1 receptor (Mus musculus, UniProt P35918).
T1 construct: expressed in transfected cells; host or cells: NIH3T3 C7#3
Description: FLK-1 ELISA (kinase activity of the FLK-1 receptor in FLK-1/NIH3T3 cells, VEGF stimulated). Set-up: concentration or dose not given beside the values. Type of experiment: cell-based. Here is the method:
An enzyme linked immunosorbent assay (ELISA) was conducted to measure the catalytic activity of the FLK-1 receptor and more specifically, the inhibition or activation of indolinone compounds on the catalytic activity of the FLK-1 receptor. Specifically, the following assay was conducted to measure catalytic activity of the FLK-1 receptor in FLK-1/NIH3T3 cells.
The materials and protocol for the FLK-1 ELISA assay are as described in International Patent Publication No. WO 96/40116, published December 19, 1996 by Tang et al.
Selected compounds were tested in the FLK-1 ELISA assay.
An ELISA assay was conducted to measure the kinase activity of the FLK-1 receptor and more specifically, the inhibition or activation of protein tyrosine kinase activity on the FLK-1 receptor. Specifically, the following assay was conducted to measure kinase activity of the FLK-1 receptor in FLK-1/NIH3T3 cells.
Materials. The following reagents and supplies were used: • a. […] Cappel goat anti-rabbit IgG (catalog no. 55641); • c. PBS (Gibco Catalog No. 450-1300EB); • d. TBSW Buffer (50 mM Tris (pH 7.2), 150 mM NaCl and 0.1% Tween-20); • e. Ethanolamine stock (10% ethanolamine (pH 7.0), stored at 4°C); • f. HNTG buffer (20mM HEPES buffer (pH 7.5), 150mM NaCl, 0.2% Triton X-100, and 10% glycerol); • g. EDTA (0.5 M (pH 7.0) as a 100X stock); • h. Sodium ortho vanadate (0.5 M as a 100X stock); • i. Sodium pyro phosphate (0.2M as a 100X stock); • j. NUNC 96 well V bottom polypropylene plates (Applied Scientific Catalog No. AS-72092); • k. NIH3T3 C7#3 Cells (FLK-1 expressing cells); • l. DMEM with 1X high glucose L Glutamine (catalog No. 11965-050); • m. FBS, Gibco (catalog no. 16000-028); • n. L-glutamine, Gibco (catalog no. 25030-016); • o. VEGF, PeproTech, Inc. (catalog no. 100-20)(kept as 1 µg/100 µl stock in Milli-Q dH2O and stored at -20°C; • p. Affinity purified anti-FLK-1 antiserum which can be obtained or purified as follows: • 1. Prepare a Tresyl-Activated Agarose/Flk-1-D column by incubating 10 ml of Tresyl-Activated Agarose with 20 mg of purified GST-Flk-1-D fusion protein in 100mM sodium bicarbonate (pH 9.6) buffer overnight at 4 °C. • 2. Wash the column once with PBS. • 3. Block the excess sites on the column with 2 M glycine for 2 hours at 4°C. • 4. Wash the column with PBS. • 5. Incubate the column with Rabbit anti-Flk-1D production bleed for 2 hours at 4 °C. • 6. Wash the column with PBS. • 7. Elute antiserum with 100 mM Citric Acid, pH3.0 and neutralize the eluate immediately with 2 M Tris, pH 9.0. • 8. Dialyize the eluate against PBS overnight at 4 °C with 3 changes of buffer (sample to buffer ratio is 1:100). • 9. Adjust the dialyized antiserum to 5% glycerol and store at -80 °C in small aliquotes. • q.
Protocol. The following protocol was used for conducting the assay: • 1. Coat Corning 96-well elisa plates with 1.0µg per well Cappel Anti-rabbit IgG antibody in 0.1M Na2CO3 pH 9.6. Bring final volume to 150 µl per well. Coat plates overnight at 4°C. Plates can be kept up to two weeks when stored at 4°C. • 2. Grow cells in Growth media(DMEM, supplemental with 2.0mM L-Glutamine, 10% FBS) in suitable culture dishes until confluent at 37°C, 5% CO2. • 3. Harvest cells by trypsinization and seed in Corning 25850 polystyrene 96-well roundbottom cell plates, 25.000 cells/well in 200µl of growth media. • 4. Grow cells at least one day at 37°C, 5% CO2. • 5. Wash cells with D-PBS 1X. • 6. Add 200µl/well of starvation media (DMEM, 2.0mM 1-Glutamine, 0.1% FBS). Incubate overnight at 37°C, 5% CO2. • 7. Dilute Compounds/Extracts 1:20 in polypropylene 96 well plates using starvation media. Dilute dimethylsulfoxide 1:20 for use in control wells. • 8. Remove starvation media from 96 well cell culture plates and add 162 µl of fresh starvation media to each well. • 9. Add 18µl of 1:20 diluted Compound/Extract dilution (from step 7) to each well plus the 1:20 dimethylsulfoxide dilution to the control wells (+/- VEGF), for a final dilution of 1:200 after cell stimulation. […]

A further experiment concerns the target PDGF-R (Homo sapiens, UniProt P09619). Description: PDGF-R ELISA. It is filed as cell-based. The text has this: A PDGF-R ELISA is described in International Patent Publication No. WO 96/40116, published December 19, 1996 by Tang et al.

T1 sequence (P35918 20-1345): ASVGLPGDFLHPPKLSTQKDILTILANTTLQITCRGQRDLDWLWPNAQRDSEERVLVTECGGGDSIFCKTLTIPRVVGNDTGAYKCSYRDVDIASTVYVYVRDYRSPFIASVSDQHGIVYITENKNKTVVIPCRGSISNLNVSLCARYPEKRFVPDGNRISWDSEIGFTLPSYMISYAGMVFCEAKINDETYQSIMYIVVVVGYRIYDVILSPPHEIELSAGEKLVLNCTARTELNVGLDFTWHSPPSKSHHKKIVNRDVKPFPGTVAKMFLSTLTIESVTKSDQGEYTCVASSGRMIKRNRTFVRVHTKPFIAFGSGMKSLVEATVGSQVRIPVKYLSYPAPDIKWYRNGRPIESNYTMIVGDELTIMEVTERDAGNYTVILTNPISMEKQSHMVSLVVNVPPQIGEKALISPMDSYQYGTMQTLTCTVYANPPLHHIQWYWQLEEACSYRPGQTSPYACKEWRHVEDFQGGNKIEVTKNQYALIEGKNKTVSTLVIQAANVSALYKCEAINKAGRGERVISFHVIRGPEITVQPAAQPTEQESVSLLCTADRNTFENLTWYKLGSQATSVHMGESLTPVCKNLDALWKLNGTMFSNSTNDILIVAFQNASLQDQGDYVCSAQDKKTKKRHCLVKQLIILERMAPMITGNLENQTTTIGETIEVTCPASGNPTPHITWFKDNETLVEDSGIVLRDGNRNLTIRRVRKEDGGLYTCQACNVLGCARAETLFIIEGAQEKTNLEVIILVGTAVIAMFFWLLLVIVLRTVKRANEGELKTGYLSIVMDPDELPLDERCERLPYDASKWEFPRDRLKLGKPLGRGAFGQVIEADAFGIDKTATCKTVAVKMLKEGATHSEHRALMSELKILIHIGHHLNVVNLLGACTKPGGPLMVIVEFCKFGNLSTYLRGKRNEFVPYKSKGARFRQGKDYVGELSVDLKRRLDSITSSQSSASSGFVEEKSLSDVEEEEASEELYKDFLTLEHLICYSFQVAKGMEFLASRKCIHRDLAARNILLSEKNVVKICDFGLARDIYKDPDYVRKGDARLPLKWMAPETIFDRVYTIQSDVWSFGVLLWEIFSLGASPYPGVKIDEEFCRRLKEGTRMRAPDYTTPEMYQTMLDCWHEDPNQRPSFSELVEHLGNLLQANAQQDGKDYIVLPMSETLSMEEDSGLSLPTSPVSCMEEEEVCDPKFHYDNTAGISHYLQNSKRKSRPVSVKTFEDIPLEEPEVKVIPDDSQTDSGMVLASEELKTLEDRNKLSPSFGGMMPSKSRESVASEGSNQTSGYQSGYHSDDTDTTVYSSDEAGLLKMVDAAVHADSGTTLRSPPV
PDGF-R, sequence (P09619 33-1106, species assumed): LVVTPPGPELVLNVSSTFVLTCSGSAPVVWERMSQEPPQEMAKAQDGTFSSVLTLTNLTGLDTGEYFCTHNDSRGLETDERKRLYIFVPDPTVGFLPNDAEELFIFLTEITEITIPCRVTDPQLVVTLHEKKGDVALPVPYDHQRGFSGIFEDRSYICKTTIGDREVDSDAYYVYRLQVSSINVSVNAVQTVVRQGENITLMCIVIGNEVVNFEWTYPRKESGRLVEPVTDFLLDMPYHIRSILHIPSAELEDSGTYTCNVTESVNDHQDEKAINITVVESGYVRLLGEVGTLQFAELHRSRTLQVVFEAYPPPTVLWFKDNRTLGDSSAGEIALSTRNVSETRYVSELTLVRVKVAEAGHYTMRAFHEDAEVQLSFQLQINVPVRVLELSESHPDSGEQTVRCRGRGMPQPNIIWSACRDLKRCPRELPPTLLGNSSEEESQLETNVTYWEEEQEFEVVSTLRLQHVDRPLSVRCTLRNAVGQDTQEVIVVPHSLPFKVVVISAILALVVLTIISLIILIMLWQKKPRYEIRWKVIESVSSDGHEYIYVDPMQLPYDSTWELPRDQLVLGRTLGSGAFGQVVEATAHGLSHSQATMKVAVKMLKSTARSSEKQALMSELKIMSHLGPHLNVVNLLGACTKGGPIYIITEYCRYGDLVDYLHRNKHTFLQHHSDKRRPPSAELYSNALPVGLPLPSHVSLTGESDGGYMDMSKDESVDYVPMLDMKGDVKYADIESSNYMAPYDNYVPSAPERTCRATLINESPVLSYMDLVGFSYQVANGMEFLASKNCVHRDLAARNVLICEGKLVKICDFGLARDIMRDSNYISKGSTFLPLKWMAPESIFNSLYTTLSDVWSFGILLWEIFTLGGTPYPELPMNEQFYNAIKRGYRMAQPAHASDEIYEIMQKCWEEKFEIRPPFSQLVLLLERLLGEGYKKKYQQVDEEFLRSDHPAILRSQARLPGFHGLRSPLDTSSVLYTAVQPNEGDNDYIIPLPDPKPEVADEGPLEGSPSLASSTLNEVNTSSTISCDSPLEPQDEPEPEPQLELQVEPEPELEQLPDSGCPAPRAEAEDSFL

Turning to `CNS(=O)(=O)c1ccc2c(c1)C(=CC(c1cccs1)C(F)(F)F)C(=O)N2` (centres unmarked) [10732/D02], on FLK-1 receptor, the “Fik Kinase %Inhibition” value is listed as 9.2%. Moreover, the “PDGF Kinase %Inhibition” value at PDGF-R is listed as -24.0%.
The corresponding values for `Cc1ccc2occ(C=C3C(=O)Nc4ccc(CCCl)cc43)c(=O)c2c1` [10731/G06] are 10.8% and -0.6%.
For `CC(C)(C)c1cc(C=C2C(=O)Nc3c(Br)cc(Br)cc32)ccc1OCc1ccccc1` [10732/A06], in that order: -0.0% and 12.3%.
As to `CNS(=O)(=O)c1ccc2c(c1)C(=Cc1coc3ccc(C(C)C)cc3c1=O)C(=O)N2` [10731/D05], the “Fik Kinase %Inhibition” value on FLK-1 receptor worked out at 32.7%. For the same compound, the “PDGF Kinase %Inhibition” value at PDGF-R stood at 46.0%.
In the case of `O=C1Nc2ccc(I)cc2C1=CC(c1cccs1)C(F)(F)F` (centres unmarked) [10732/B02], on FLK-1 receptor, the “Fik Kinase %Inhibition” value stood at 2.9%. Besides, the “PDGF Kinase %Inhibition” value on PDGF-R is 23.5%.
For the compound `CNS(=O)(=O)c1ccc2c(c1)C(=Cc1c[nH]c(=O)[nH]c1=O)C(=O)N2` [10731/D08], on FLK-1 receptor, the “Fik Kinase %Inhibition” value is on record as 25.8%. For the same compound, the “PDGF Kinase %Inhibition” value on PDGF-R is given as -8.7%.
Take `COc1c(C(C)C)cc(C=C2C(=O)Nc3c(Br)cc(Br)cc32)cc1C(C)C` [10732/A03]: the “Fik Kinase %Inhibition” value at FLK-1 receptor is -9.9%. For the same compound, the “PDGF Kinase %Inhibition” value at PDGF-R is -3.8%.
The corresponding values for `COc1c(Cl)cc(C=C2C(=O)Nc3ccc(Br)c(C)c32)cc1C(C)(C)C` [10732/C09] are 8.0% and 15.4%.
As for `CNS(=O)(=O)c1ccc2c(c1)C(=Cc1cc(C(C)C)c(OC)c(C(C)C)c1)C(=O)N2` [10732/D03], at FLK-1 receptor, the “Fik Kinase %Inhibition” value was 22.5%. Further, the “PDGF Kinase %Inhibition” value at PDGF-R was found to be 26.0%.
For the compound `COc1c(C(C)C)cc(C=C2C(=O)Nc3ccc(Br)c(C)c32)cc1C(C)C` [10732/C03], at FLK-1 receptor, the “Fik Kinase %Inhibition” value came to 14.7%. Also, the “PDGF Kinase %Inhibition” value on PDGF-R is 7.3%.
For `CCn1c2ccccc2c2cc(C=C3C(=O)Nc4ccc(S(=O)(=O)Nc5ccc(C(F)(F)F)cc5)cc43)ccc21` [10731/E02], the “Fik Kinase %Inhibition” value at FLK-1 receptor stood at 11.2%. Besides, the “PDGF Kinase %Inhibition” value at PDGF-R came out at 13.7%.
Consider `CNS(=O)(=O)c1ccc2c(c1)C(=Cc1coc3ccc(C)cc3c1=O)C(=O)N2` [10731/D06], for which the “Fik Kinase %Inhibition” value on FLK-1 receptor is 16.1%. For the same compound, the “PDGF Kinase %Inhibition” value on PDGF-R is 8.0%.
For `COc1c(I)cc(C=C2C(=O)Nc3c(Br)cc(Br)cc32)cc1C(C)(C)C` [10732/A11], at FLK-1 receptor, the “Fik Kinase %Inhibition” value is recorded as -0.6%. The “PDGF Kinase %Inhibition” value on PDGF-R is 40.1%.
The corresponding values for `COc1ccc(C=C2C(=O)Nc3ccc(I)cc32)cc1C(C)(C)C` [10732/B05] are 2.8% and 21.9%.
As to `CC(C)(C)c1cc(C=C2C(=O)Nc3ccc(I)cc32)cc(Cl)c1OCc1ccccc1` [10732/B10], the “Fik Kinase %Inhibition” value on FLK-1 receptor came to 12.1%. For the same compound, the “PDGF Kinase %Inhibition” value at PDGF-R came out at 0.7%.
Regarding `Cc1ccc2occ(C=C3C(=O)Nc4ccc(S(=O)(=O)N5CCOCC5)cc43)c(=O)c2c1` [10731/F06], the “Fik Kinase %Inhibition” value on FLK-1 receptor came to 2.2%. The “PDGF Kinase %Inhibition” value at PDGF-R is -23.4%.
The corresponding values for `CNS(=O)(=O)c1ccc2c(c1)C(=Cc1coc3ccc([N+](=O)[O-])cc3c1=O)C(=O)N2` [10731/D07] are 12.3% and 2.7%.
For `O=C1Nc2ccc(CCCl)cc2C1=Cc1c[nH]c(=O)[nH]c1=O` [10731/G08], in that order: 18.2% and -13.9%.
`CNS(=O)(=O)c1ccc2c(c1)C(=Cc1cc(Cl)c(OCc3ccccc3)c(C(C)(C)C)c1)C(=O)N2` [10732/D10]: the “Fik Kinase %Inhibition” value at FLK-1 receptor was 25.5%. At PDGF-R, the “PDGF Kinase %Inhibition” value is reported as 24.5%.
For `CNS(=O)(=O)c1ccc2c(c1)C(=Cc1cc(Br)c(OCc3ccccc3)c(C(C)(C)C)c1)C(=O)N2` [10732/D08], in that order: 33.3% and 30.5%.
Turning to `Cc1c(Br)ccc2c1C(=CC(c1cccs1)C(F)(F)F)C(=O)N2` (centres unmarked) [10732/C02], the “Fik Kinase %Inhibition” value at FLK-1 receptor was determined as 11.9%. Further, the “PDGF Kinase %Inhibition” value at PDGF-R is listed as 7.3%.
For `COc1c(Br)cc(C=C2C(=O)Nc3ccc(Br)c(C)c32)cc1C(C)(C)C` [10732/C07], the “Fik Kinase %Inhibition” value on FLK-1 receptor came out at 15.4%. In addition, the “PDGF Kinase %Inhibition” value at PDGF-R was found to be 4.3%.
The corresponding values for `COc1ccc2[nH]cc(C=C3C(=O)Nc4ccc(CCCl)cc43)c2c1` [10731/G09] are 13.3% and -8.7%.
In the case of `Cc1cc2occ(C=C3C(=O)Nc4ccc(S(=O)(=O)Nc5ccc(C(F)(F)F)cc5)cc43)c(=O)c2cc1C` [10731/E03], the “Fik Kinase %Inhibition” value on FLK-1 receptor is -1.4%. Moreover, the “PDGF Kinase %Inhibition” value at PDGF-R is listed as 15.6%.
For `Cc1cc2occ(C=C3C(=O)Nc4ccc(S(=O)(=O)N5CCOCC5)cc43)c(=O)c2cc1C` [10731/F03], the “Fik Kinase %Inhibition” value at FLK-1 receptor stood at 7.9%. In addition, the “PDGF Kinase %Inhibition” value at PDGF-R came to 11.8%.
Take `Cc1c(Br)ccc2c1C(=Cc1cc(Br)c(OCc3ccccc3)c(C(C)(C)C)c1)C(=O)N2` [10732/C08]: on FLK-1 receptor, the “Fik Kinase %Inhibition” value came to 7.6%. In addition, the “PDGF Kinase %Inhibition” value at PDGF-R was found to be 17.9%.
Regarding `Cc1ccc2occ(C=C3C(=O)Nc4ccc(S(=O)(=O)Nc5ccc(C(F)(F)F)cc5)cc43)c(=O)c2c1` [10731/E06], the “Fik Kinase %Inhibition” value at FLK-1 receptor is given as 2.6%. Further, on PDGF-R, the “PDGF Kinase %Inhibition” value is given as -12.0%.
For `COc1c(I)cc(C=C2C(=O)Nc3ccc(Br)c(C)c32)cc1C(C)(C)C` [10732/C11], in that order: 18.2% and 16.4%.
For `C=C(C)C1CC=C(C=C2C(=O)Nc3ccc(S(=O)(=O)N4CCOCC4)cc32)CC1` (centres unmarked) [10731/F04], in that order: 24.5% and 3.2%.
For `CC(C)c1ccc2occ(C=C3C(=O)Nc4ccc(S(=O)(=O)Nc5ccc(C(F)(F)F)cc5)cc43)c(=O)c2c1` [10731/E05], in that order: 7.0% and 27.0%.
As for `O=C1Nc2ccc(S(=O)(=O)N3CCOCC3)cc2C1=Cc1c[nH]c(=O)[nH]c1=O` [10731/F08], the “Fik Kinase %Inhibition” value at FLK-1 receptor worked out at 9.2%. Besides, the “PDGF Kinase %Inhibition” value on PDGF-R is on record as 4.1%.
For `O=C1Nc2ccc(CCCl)cc2C1=Cc1coc2ccc([N+](=O)[O-])cc2c1=O` [10731/G07], in that order: 31.6% and 40.8%.
For `COc1c(I)cc(C=C2C(=O)Nc3ccc(I)cc32)cc1C(C)(C)C` [10732/B11], in that order: 9.0% and 70.9%.
For `O=C1Nc2ccc(S(=O)(=O)Nc3ccc(C(F)(F)F)cc3)cc2C1=Cc1c[nH]c(=O)[nH]c1=O` [10731/E08], on FLK-1 receptor, the “Fik Kinase %Inhibition” value worked out at 10.5%. For the same compound, at PDGF-R, the “PDGF Kinase %Inhibition” value turned out to be 8.9%.
